In patent US20240122829A1, “HAIR COMPOSITIONS, HAIR FORMULATIONS, PROCESSES OF PRODUCTION THEREOF, USES AND METHODS OF HAIR TREATMENT” (CHEMYUNION LTDA., priority 2021, published 2024):

Test: Repairing effect: maximum tension of hair fibers after 3 discoloration processes, composition applied in a leave-in base
Conditions: synergy test, after 3 discolorations; compositions at 5% in leave-in base; FIG. 11
Protocol: To evaluate the effectiveness of the repairing effect, tests of maximum tension were performed after 2 or 3 discoloration processes in hair samples, composed by a naïve control group (without discoloration process), a discolored control group, a group discolored with application of the Benchmark 1 composition and a group containing the compositions of the present patent application after two or three discoloration processes, the composition being applied in a leave-in base containing 1% or 5% of the composition, this composition being the Base A or Base B, while Benchmark consisted of a ready-to-use cosmetic base (Benchmark 2 or Benchmark 3).
The leave-in base comprises: 3%-5% cetostearyl alcohol 30/70; 0.8-2.5% cetyl alcohol 0.8-2.5%; 0.05%-0.1% disodium EDTA; 0.8%-2.5% CCTA cetyl trimethyl ammonium chloride; 0.25%-1% preservatives and anti-microbial agents and water q.s. […]
After the discoloration process, a standardized amount of Leave-in was applied to the strands with or without (control) 1% or 5% of the hair composition of the present patent application on damp hair, and this composition may be the Base A or Base B or the actives making up Base B, while the benchmark consisted of a ready-to-use cosmetic base (Benchmark 2 or Benchmark 3). […]

Structure (SMILES): N=C(N)NCCC[C@H](N)C(=O)O [arginine]
- increase in resistance in relation to the discolored strand: 3.9%
